Key:
c-Src = molecular target: T1, c-Src (Homo sapiens, UniProt P12931); assay: Z`-LYTE kinase profiling, c-Src; format: biochemical
T1 construct: purchased Invitrogen/Life Technologies

[1] = test system: MCF-7 breast cancer cell line; assay: MTT antiproliferative assay, MCF-7; format: cell-based; settings: 10 µM, 24 h
Procedure: (§1) At least, three independent experiments were performed.

[2] = test system: HCT-116 colorectal cancer cell line; assay: MTT antiproliferative assay, HCT-116; settings: for GI% HCT-116: 10 µM, 24 h, MTT; for IC50: Homo sapiens, HCT-116, 24 h, read-out: IC50 HCT-116 (half maximal growth inhibitory concentration)
VEGFR-1 = molecular target: T2, VEGFR-1 (Homo sapiens, UniProt P17948); assay: Z`-LYTE kinase profiling, VEGFR-1; format: biochemical
T2 construct: purchased Invitrogen/Life Technologies
T2 sequence (P17948 27-1338): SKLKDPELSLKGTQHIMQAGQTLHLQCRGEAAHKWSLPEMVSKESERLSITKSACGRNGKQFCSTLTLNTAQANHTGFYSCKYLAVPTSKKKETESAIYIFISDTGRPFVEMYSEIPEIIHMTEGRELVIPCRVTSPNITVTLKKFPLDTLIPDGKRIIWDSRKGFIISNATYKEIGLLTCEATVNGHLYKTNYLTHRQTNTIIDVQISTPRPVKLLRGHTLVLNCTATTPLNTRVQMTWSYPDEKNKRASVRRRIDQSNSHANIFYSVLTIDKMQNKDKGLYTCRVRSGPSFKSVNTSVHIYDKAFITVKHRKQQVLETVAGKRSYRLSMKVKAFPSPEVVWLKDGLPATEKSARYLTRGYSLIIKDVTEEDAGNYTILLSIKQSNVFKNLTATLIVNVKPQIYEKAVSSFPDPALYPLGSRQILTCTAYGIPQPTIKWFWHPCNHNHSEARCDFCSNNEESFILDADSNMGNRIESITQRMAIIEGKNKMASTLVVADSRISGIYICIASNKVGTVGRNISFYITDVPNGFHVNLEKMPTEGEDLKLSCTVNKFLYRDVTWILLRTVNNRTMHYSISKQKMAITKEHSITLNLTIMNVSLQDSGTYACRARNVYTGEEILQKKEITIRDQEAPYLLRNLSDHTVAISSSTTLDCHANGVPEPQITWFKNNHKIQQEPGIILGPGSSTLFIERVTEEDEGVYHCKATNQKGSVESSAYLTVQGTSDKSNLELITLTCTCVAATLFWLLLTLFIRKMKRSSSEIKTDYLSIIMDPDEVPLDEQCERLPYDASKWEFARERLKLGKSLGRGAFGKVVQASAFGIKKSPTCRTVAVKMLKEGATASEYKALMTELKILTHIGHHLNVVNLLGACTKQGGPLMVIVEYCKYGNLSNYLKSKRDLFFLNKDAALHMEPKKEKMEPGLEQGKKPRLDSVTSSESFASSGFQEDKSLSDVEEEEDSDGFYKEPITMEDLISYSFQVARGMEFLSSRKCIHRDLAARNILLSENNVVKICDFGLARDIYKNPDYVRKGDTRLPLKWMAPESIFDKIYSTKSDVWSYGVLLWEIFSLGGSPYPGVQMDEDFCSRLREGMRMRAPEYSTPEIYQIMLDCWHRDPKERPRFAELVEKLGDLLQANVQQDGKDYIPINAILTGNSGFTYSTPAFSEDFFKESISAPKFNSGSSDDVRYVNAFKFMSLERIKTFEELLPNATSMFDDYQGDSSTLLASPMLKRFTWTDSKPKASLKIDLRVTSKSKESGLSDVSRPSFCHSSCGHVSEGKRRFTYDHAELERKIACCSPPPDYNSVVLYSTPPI

VEGFR-2 = molecular target: T3, VEGFR-2 (Homo sapiens, UniProt P35968); assay: Z`-LYTE kinase profiling, VEGFR-2; format: biochemical
T3 construct: purchased Invitrogen/Life Technologies

HER-2 = molecular target: T4, HER-2 (Homo sapiens, UniProt P04626); assay: Z`-LYTE kinase profiling, HER-2; format: biochemical
T4 construct: purchased Invitrogen/Life Technologies

[3] = test system: DLD-1 colorectal cancer cell line; assay: MTT antiproliferative assay, DLD-1; settings: for GI% DLD1: 10 µM, 24 h, MTT; for IC50: Homo sapiens, DLD-1, 24 h, read-out: IC50 DLD1 (half maximal growth inhibitory concentration)
Procedure: After the incubation of the tested compounds for 24 h, the percent growth inhibition (GI%) was calculated.
Cells were seeded at 1 × 10^4 cells/well and cultured overnight in a 96-well plate. […] Then, 150 µl DMSO was used to solubilise MTT formazan crystals. Finally, the plates were shaken, and the optical density was determined at 570 nm using ELISA plate reader. At least, three independent experiments were performed. Percentage of growth inhibition was determined as (1-[OD of treated cells/OD of control cells]). […] The IC50 values were calculated using Prism v0.8 software (GraphPad Software Inc., La Jolla, CA).

EGFR = EGFR (Homo sapiens, UniProt P00533); assay: Z`-LYTE kinase inhibitory assay, EGFR
FAK = FAK (Homo sapiens, UniProt Q05397); assay: Z`-LYTE kinase inhibitory assay, FAK
FAK, sequence (Q05397 whole entry): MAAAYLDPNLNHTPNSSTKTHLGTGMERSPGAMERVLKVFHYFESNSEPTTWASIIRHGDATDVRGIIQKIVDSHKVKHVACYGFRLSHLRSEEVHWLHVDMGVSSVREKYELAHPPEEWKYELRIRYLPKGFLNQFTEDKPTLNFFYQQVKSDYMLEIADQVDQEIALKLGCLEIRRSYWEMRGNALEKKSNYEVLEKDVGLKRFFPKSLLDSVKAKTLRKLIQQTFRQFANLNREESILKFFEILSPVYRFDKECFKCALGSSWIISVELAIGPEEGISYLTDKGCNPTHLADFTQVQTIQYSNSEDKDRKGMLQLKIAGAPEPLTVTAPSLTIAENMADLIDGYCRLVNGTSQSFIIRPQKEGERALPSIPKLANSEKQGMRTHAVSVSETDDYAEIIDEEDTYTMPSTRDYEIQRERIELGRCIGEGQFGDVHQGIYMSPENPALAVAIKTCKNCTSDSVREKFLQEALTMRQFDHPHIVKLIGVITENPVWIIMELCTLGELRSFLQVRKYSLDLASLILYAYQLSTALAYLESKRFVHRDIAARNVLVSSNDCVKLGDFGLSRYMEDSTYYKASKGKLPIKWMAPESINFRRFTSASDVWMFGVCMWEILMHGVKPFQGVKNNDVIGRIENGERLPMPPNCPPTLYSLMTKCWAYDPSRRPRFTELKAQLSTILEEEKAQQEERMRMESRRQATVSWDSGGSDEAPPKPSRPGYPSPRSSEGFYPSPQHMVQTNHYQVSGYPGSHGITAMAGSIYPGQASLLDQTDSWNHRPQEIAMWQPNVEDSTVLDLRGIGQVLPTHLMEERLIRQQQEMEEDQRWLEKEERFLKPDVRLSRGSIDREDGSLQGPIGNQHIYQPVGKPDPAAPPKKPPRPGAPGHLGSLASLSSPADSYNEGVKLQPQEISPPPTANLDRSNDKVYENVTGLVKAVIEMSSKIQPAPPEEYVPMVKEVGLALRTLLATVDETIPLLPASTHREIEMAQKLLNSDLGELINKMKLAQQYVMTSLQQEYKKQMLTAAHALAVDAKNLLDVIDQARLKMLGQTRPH

BTK = molecular target: T5, BTK (Homo sapiens, UniProt Q06187); assay: Z`-LYTE kinase profiling, BTK; format: biochemical
T5 construct: purchased Invitrogen/Life Technologies
T5 sequence (Q06187 whole entry): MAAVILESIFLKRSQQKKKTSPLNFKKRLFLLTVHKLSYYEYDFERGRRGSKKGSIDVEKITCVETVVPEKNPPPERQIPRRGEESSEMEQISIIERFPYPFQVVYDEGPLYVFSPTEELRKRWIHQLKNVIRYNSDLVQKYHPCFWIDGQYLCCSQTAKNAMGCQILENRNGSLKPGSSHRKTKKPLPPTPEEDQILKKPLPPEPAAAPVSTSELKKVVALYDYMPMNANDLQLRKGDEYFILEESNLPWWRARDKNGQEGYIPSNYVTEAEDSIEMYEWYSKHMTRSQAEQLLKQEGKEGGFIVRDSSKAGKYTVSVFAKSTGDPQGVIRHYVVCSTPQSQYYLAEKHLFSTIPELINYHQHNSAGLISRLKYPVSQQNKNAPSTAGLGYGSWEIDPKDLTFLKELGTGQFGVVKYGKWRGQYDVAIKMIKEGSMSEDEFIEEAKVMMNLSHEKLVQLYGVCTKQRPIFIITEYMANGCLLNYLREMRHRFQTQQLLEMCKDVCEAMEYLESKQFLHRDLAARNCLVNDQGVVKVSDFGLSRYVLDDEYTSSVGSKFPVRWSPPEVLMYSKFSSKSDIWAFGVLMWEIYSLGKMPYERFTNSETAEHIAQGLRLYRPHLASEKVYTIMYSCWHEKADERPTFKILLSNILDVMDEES

FRK = molecular target: T6, FRK (Homo sapiens, UniProt P42685); assay: Z`-LYTE kinase profiling, FRK; format: biochemical
T6 construct: purchased Invitrogen/Life Technologies
T6 sequence (P42685 whole entry): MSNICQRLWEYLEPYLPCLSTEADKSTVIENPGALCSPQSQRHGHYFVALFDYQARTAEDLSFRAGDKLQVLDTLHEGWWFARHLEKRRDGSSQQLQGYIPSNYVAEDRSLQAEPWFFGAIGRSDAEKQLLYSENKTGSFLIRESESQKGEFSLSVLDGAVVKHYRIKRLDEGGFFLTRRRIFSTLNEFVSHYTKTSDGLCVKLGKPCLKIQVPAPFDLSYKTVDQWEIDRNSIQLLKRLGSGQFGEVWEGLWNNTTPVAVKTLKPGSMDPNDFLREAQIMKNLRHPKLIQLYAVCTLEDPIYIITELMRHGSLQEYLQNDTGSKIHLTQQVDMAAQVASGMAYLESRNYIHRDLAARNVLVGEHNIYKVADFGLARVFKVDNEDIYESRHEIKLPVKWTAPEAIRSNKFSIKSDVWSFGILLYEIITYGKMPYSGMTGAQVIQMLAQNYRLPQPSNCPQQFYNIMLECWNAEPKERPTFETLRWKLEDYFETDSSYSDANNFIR

IGF-1R = molecular target: T7, IGF-1R (Homo sapiens, UniProt P08069); assay: Z`-LYTE kinase profiling, IGF-1R; format: biochemical
T7 construct: purchased Invitrogen/Life Technologies

[4] = test system: HeLa cervical cancer cell line; assay: MTT antiproliferative assay, HeLa; format: cell-based; settings: 10 µM, 24 h
Procedure: as §1

[5] = test system: MDMBA-231 breast cancer cell line; assay: MTT antiproliferative assay, MDMBA-231; format: cell-based; settings: 10 µM, 24 h
Procedure: as §1

recombinant human TOP1 = molecular target: T8, recombinant human TOP1 (Homo sapiens, UniProt P11387); assay: Topoisomerase I-mediated DNA cleavage assay; settings: tested at 0.1, 1, 10, 100 µM
T8 sequence (P11387 1-765): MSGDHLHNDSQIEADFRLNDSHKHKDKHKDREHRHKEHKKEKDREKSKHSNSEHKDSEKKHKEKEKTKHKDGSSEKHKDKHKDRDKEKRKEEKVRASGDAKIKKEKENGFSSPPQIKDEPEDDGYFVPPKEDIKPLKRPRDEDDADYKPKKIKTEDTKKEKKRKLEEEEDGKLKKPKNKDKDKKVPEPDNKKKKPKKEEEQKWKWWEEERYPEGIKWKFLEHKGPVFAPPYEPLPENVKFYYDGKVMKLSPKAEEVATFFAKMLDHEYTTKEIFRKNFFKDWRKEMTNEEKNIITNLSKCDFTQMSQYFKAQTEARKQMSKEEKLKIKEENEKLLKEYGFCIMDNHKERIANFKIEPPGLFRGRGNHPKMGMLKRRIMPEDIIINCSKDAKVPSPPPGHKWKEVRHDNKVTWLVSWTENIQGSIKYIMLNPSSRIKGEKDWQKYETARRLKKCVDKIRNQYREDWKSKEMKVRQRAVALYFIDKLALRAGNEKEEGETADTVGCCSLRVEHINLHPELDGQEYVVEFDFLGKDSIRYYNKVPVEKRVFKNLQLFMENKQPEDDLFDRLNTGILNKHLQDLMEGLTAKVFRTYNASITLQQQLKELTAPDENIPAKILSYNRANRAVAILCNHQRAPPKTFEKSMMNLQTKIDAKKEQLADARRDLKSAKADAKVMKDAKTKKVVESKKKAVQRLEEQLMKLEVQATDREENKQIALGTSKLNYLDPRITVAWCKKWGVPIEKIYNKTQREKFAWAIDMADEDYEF
Procedure: Radiolabeled DNA was incubated with recombinant human TOP1 in 20 µL reaction buffer (10 mmol/L Tris-HCl, pH 7.5, 50 mmol/L KCl, 5 mmol/L MgCl2, 0.1 mmol/L EDTA, and 15 µg/mL BSA) at 30 °C for 20 min in the presence of the indicated drug concentrations. Reactions were terminated by adding SDS (0.5% final concentration) followed by the addition of two volumes of loading dye (80% formamide, 10 mmol/L sodium hydroxide, 1 mmol/L sodium EDTA, 0.1% xylene cyanol, and 0.1% bromophenol blue). Aliquots of reaction mixtures were subjected to 20% denaturing PAGE. Gels were dried and visualised by using PhosphorImager and Image Quant software (Molecular Dynamics).

T1 sequence (P12931 whole entry): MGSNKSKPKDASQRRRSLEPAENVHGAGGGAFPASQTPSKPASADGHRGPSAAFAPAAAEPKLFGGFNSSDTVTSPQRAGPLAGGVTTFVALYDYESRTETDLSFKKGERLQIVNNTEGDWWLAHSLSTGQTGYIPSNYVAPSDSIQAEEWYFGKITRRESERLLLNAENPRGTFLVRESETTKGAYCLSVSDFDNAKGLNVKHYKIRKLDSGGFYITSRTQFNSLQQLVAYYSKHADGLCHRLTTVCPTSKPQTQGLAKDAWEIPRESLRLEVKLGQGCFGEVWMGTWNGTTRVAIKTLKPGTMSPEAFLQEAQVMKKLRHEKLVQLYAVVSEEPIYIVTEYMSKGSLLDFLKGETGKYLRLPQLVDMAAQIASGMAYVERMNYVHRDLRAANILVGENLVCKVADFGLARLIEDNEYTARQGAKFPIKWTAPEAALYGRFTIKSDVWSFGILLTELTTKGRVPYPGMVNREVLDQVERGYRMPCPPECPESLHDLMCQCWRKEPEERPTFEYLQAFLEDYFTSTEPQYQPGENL

IC50 (c-Src) [µM]	IC50 [2] [µM]	IC50 (VEGFR-1) [µM]	IC50 (VEGFR-2) [µM]	IC50 (HER-2) [µM]	melting point [°C]	IC50 [3] [µM]	IC50 (EGFR) [µM]	IC50 (FAK) [µM]	IC50 (BTK) [µM]	IC50 (FRK) [µM]	IC50 (IGF-1R) [µM]	TOP1 inhibitory activity (semiquantitative score relative to 1 µM CPT) (recombinant human TOP1)	fold decreased activity than Gefitinib, EGFR (EGFR; from IC50 values) [fold]	SMILES	GI% MCF-7 [1] [%]	GI% HCT-116 [2] [%]	GI% DLD1 [3] [%]	GI% Hela [4] [%]	GI% MDMBA-231 [5] [%]
0.783	65.4 ± 4.37	0.0953	0.268	1.24	140 to 142	> 100	0.143 ± 0.00254	0.2144 ± 0.00109	1.59	0.825	1.02	−/+ (−/+: 0–25% 1 µM CPT)	–	COc1cc2nc(-c3ccc(Cl)cc3)cc(OCCCN3CCN(C)CC3)c2cc1OC [6a, 2-(4-chlorophenyl)-6,7-dimethoxy-4–(3-(4-methylpiperazin-1-yl)propoxy)quinoline]	17.34	31.34	22.56	20.15	9.38
2.5	16.8 ± 1.56	3.33	6.74	0.123	118 to 120	19.4 ± 2.15	0.0453 ± 0.00536	0.0982 ± 0.00467	8.52	9.15	8.06	−/+ (−/+: 0–25% 1 µM CPT)	–	COc1cc2nc(-c3ccc(Cl)cc3)cc(OCCCNC3CCCCC3)c2cc1OC [6b, N-(3-((2–(4-chlorophenyl)-6,7-dimethoxyquinolin-4-yl)oxy)propyl)cyclohexanamine]	23.49	42.81	36.25	12.81	19.67
1.5	13.7 ± 1.29	0.606	0.405	1.38	124 to 126	47 ± 2.46	0.0857 ± 0.00646	0.0457 ± 0.0034	2.25	1.56	2.03	−/+ (−/+: 0–25% 1 µM CPT)	2	COc1cc2nc(-c3ccc(Cl)cc3)cc(OCCCNC3CCN(C)CC3)c2cc1OC [6c, N-(3-((2–(4-chlorophenyl)-6,7-dimethoxyquinolin-4-yl)oxy)propyl)-1-methylpiperidin-4-amine]	15.76	41.36	28.22	4.96	19.38
0.408	4.67 ± 0.85	0.303	0.492	0.695	108 to 110	8.15 ± 1.05	0.0464 ± 0.00409	0.037 ± 0.00234	1.37	0.507	1.59	−/+ (−/+: 0–25% 1 µM CPT)	–	COc1cc2nc(-c3ccc(Cl)cc3)cc(OCCCNCC3CCCO3)c2cc1OC (stereo not shown) [6d, 3-((2–(4-chlorophenyl)-6,7-dimethoxyquinolin-4-yl)oxy)-N-((tetrahydrofuran-2-yl)methy-l)propan-1-amine]	71.97	82.61	75.64	26.98	63.39
0.198	> 100	7.33	3.76	0.0821	209 to 211	> 100	0.157 ± 0.0114	0.211 ± 0.00896	4.94	9	2.16	−/+ (−/+: 0–25% 1 µM CPT)	–	COc1cc2nc(-c3ccc(Cl)cc3)cc(OCCCn3ccnc3)c2cc1OC [6e, 4-(3-(1H-imidazol-1-yl)propoxy)-2–(4-chlorophenyl)-6,7-dimethoxyquinoline]	5.34	22.03	15.79	22.36	4.67
2.76	46.8 ± 3.16	1.11	0.997	0.455	131 to 133	75.4 ± 5.46	0.365 ± 0.0148	0.146 ± 0.0105	4.76	1.28	1.48	0	–	COc1cc2nc(-c3ccc(C(F)(F)F)cc3)cc(OCCCNC3CCCCC3)c2cc1OC [6g, N-(3-((6,7-dimethoxy-2–(4-(trifluoromethyl)phenyl)quinolin-4-yl)oxy)propyl)cyclohexan-amine]	76.38	22.16	25.36	46.28	48.15
0.186	> 100	0.769	0.392	0.206	217 to 219	> 100	0.258 ± 0.0119	0.186 ± 0.00622	0.185	0.139	0.219	0	–	COc1cc2nc(-c3ccc(C(F)(F)F)cc3)cc(OCCCn3ccnc3)c2cc1OC [6j, 4-(3-(1H-imidazol-1-yl)propoxy)-6,7-dimethoxy-2–(4-(trifluoromethyl)phenyl)quinoline]	14.67	2.46	6.31	5.67	8.42
6.45	> 100	5.04	5.96	1.35	128 to 130	> 100	0.41 ± 0.0127	0.158 ± 0.00873	2.76	3.17	2.4	0	–	COc1cc2nc(-c3ccc(C)cc3)cc(OCCCN3CCN(C)CC3)c2cc1OC [6k, 6,7-dimethoxy-4–(3-(4-methylpiperazin-1-yl)propoxy)-2-(p-tolyl)quinoline]	17.49	22.15	18.69	11.32	8.64
1.92	8.11 ± 1.04	0.346	2.4	0.756	126 to 128	6.34 ± 0.52	0.0349 ± 0.00376	0.0264 ± 0.00281	1.61	0.743	1.82	−/+ (−/+: 0–25% 1 µM CPT)	–	COc1cc2nc(-c3ccc(C)cc3)cc(OCCCNC3CCCCC3)c2cc1OC [6l, N-(3-((6,7-dimethoxy-2-(p-tolyl)quinolin-4-yl)oxy)propyl)cyclohexanamine]	44.71	69.15	75.34	34.29	38.36
–	6.94 ± 1.24	–	–	–	–	–	–	–	–	–	–	–	–	COc1cc2ncnc(Nc3ccc(F)c(Cl)c3)c2cc1OCCCN1CCOCC1 [Gefitinib, reference compound]	–	–	–	–	–
–	0.17 ± 0.04	–	–	–	–	0.12 ± 0.05	–	–	–	–	–	–	–	CNC(=O)c1ccccc1Nc1nc(Nc2ccc(N3CCOCC3)cc2OC)ncc1Cl [TAE226, reference compound]	–	–	–	–	–

Source: article PMC8725837, “2-Arylquinolines as novel anticancer agents with dual EGFR/FAK kinase inhibitory activity: synthesis, biological evaluation, and molecular modelling insights” (Journal of Enzyme Inhibition and Medicinal Chemistry, 2021)
